Reference: paper PMC12040969, “Design, synthesis, in silico studies, and apoptotic antiproliferative activity of novel thiazole-2-acetamide derivatives as tubulin polymerization inhibitors” (Frontiers in Chemistry, 2025)

Tests used:
- MDAMB-231 = test: Antiproliferative assay (MTT) MDAMB-231
pancreatic - MDAMB-231 = test: Antiproliferative assay (MTT) MDAMB-231; conditions: read-out: Antiproliferative activity IC50 ± SEM (µM) MDAMB-231; MDAMB-231, MTT
colon - HCT-116 = test: Antiproliferative assay (MTT) HCT-116
prostatic - PC-3 = test: Antiproliferative assay (MTT) PC-3
breast - MCF-7 = test: Antiproliferative assay (MTT) MCF-7
[1] = Cell viability assay (MTT), normal cells; type: cell-based; conditions: human, MCF-10A normal mammary gland epithelial cells, four-day incubation
[2] = tested on: four human cancer cell lines (HCT-116, PC-3, MCF-7, MDAMB-231); test: Antiproliferative assay, mean of four cell lines (GI50)
tubulin = test: Tubulin polymerization inhibition assay (Cytoskeleton kit); conditions: for Tub %inh: 30 min, YB-EGY run; for Tub K.Activity: EC = 120, YB-EGY run;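 for all read-outs here: Cell-free tubulin polymerization read by fluorescent reporter enhancement over a 30 min reaction, with the compound-free kit control taken as 100% activity and inhibition relative to it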

## Cc1nc(SCC(=O)Nc2nccs2)sc1C(=O)/C=C/c1ccc(Cl)cc1 [Compound 13b, (E)-2-((5-(3-(4-chlorophenyl)acryloyl)-4-methylthiazol-2-yl)thio)-N-(thiazol-2-yl)acetamide]
- MDAMB-231; MDAMB-231, 1.56 µM
  Average of Relative viability of cells (%): 91.7%
- MDAMB-231; MDAMB-231, 3.125 µM
  Average of Relative viability of cells (%): 68.9%
- MDAMB-231; MDAMB-231, 6.25 µM
  Average of Relative viability of cells (%): 60.5%
- MDAMB-231; MDAMB-231, 12.5 µM
  Average of Relative viability of cells (%): 34.6%
- MDAMB-231; MDAMB-231, 25 µM
  Average of Relative viability of cells (%): 26.3%
- MDAMB-231; MDAMB-231, 50 µM
  Average of Relative viability of cells (%): 17.4%
- MDAMB-231; MDAMB-231, 100 µM
  Average of Relative viability of cells (%): 9.2%
Pancreatic - MDAMB-231
  IC50: 8 ± 0.7 µM
Colon - HCT-116; HCT-116, 1.56 µM
  Average of Relative viability of cells (%): 100%
Colon - HCT-116; HCT-116, 3.125 µM
  Average of Relative viability of cells (%): 92.7%
Colon - HCT-116; HCT-116, 6.25 µM
  Average of Relative viability of cells (%): 73.3%
Colon - HCT-116; HCT-116, 12.5 µM
  Average of Relative viability of cells (%): 53.2%
Colon - HCT-116; HCT-116, 25 µM
  Average of Relative viability of cells (%): 39.5%
Colon - HCT-116; HCT-116, 50 µM
  Average of Relative viability of cells (%): 27.4%
Colon - HCT-116; HCT-116, 100 µM
  Average of Relative viability of cells (%): 14.3%
Colon - HCT-116; read-out: Antiproliferative activity IC50 ± SEM (µM) HCT-116, HCT-116, MTT
  IC50: 17 ± 1.4 µM
Prostatic - PC-3; PC-3, 1.56 µM
  Average of Relative viability of cells (%): 100%
Prostatic - PC-3; PC-3, 3.125 µM
  Average of Relative viability of cells (%): 86.4%
Prostatic - PC-3; PC-3, 6.25 µM
  Average of Relative viability of cells (%): 69.2%
Prostatic - PC-3; PC-3, 12.5 µM
  Average of Relative viability of cells (%): 45.8%
Prostatic - PC-3; PC-3, 25 µM
  Average of Relative viability of cells (%): 33.7%
Prostatic - PC-3; PC-3, 50 µM
  Average of Relative viability of cells (%): 25.3%
Prostatic - PC-3; PC-3, 100 µM
  Average of Relative viability of cells (%): 17.1%
Prostatic - PC-3; read-out: Antiproliferative activity IC50 ± SEM (µM) PC-3, PC-3, MTT
  IC50: 14 ± 1.2 µM
Breast - MCF-7; MCF-7, 1.56 µM
  Average of Relative viability of cells (%): 97.8%
Breast - MCF-7; MCF-7, 3.125 µM
  Average of Relative viability of cells (%): 83.5%
Breast - MCF-7; MCF-7, 6.25 µM
  Average of Relative viability of cells (%): 57.1%
Breast - MCF-7; MCF-7, 12.5 µM
  Average of Relative viability of cells (%): 39.3%
Breast - MCF-7; MCF-7, 25 µM
  Average of Relative viability of cells (%): 22.6%
Breast - MCF-7; MCF-7, 50 µM
  Average of Relative viability of cells (%): 14.7%
Breast - MCF-7; MCF-7, 100 µM
  Average of Relative viability of cells (%): 8.2%
Breast - MCF-7; read-out: Antiproliferative activity IC50 ± SEM (µM) MCF-7, MCF-7, MTT
  IC50: 9 ± 0.7 µM
[1]
  viability at 96 h, 50 µM: 87%
[2]; GI50 ratio
  Reduced potency compared to doxorubicin (GI50): at least 2.5 fold
  Reduced potency compared to sorafenib (GI50): ≥ 1.5 fold
[2]; Homo sapiens, read-out: GI50 (average IC50)
  IC50: 12 µM
tubulin; conc 0.1 (unit not given)
  Tub %inh: 15.2%
  Tub K.Activity: 101.7
tubulin; conc 1 (unit not given)
  Tub %inh: 32.3%
  Tub K.Activity: 81.254
tubulin; conc 10 (unit not given)
  Tub %inh: 54.2%
  Tub K.Activity: 54.918
tubulin; conc 50 (unit not given)
  Tub %inh: 76.9%
  Tub K.Activity: 27.751
tubulin; conc 100 (unit not given)
  Tub %inh: 92.3%
  Tub K.Activity: 9.196
tubulin; read-out: Tubulin inhibition IC50 ± SEM, triplicate for each tested concentration
  IC50: 3.73 ± 0.11 µM
